Here are results for two substances from US20240424115A1, “LONG-ACTING INTERLEUKIN-15 RECEPTOR AGONISTS AND RELATED IMMUNOTHERAPEUTIC COMPOSITIONS AND METHODS” (Nektar Therapeutics, priority 2017, published 2024).

A short description of data set [1]: Single dose PK study in non-human primates (plasma concentration). Type of data set: in vivo. As to conditions: cynomolgus monkeys. On the procedure:
Cynomolgus monkeys (n=2, 1 male and 1 female), were administered a single intravenous dose of Conjugate 1 at 10, 50 and 100 μg/kg. IL-15 was administered as a single intravenous dose at 50 μg/kg as a control. Plasma concentration of drug was determined at the indicated time points post injection (0.03, 0.25, 1, 4, 12, 24, 48, 72, 96, 120, 144, 168 hours).

Data set [2] deals with NK cells, CD8 T cells, CD4 T cells. The experiment in a line: In vivo PD study in mice: lymphocyte cell numbers, proliferation and activation. Also on record: species or system Balb/c mice. The text has this: NK cells and their proliferation were defined using CD45+CD3-CD49b+ and CD45+CD3-CD49b+Ki67+ marker combinations. Following dosing, blood samples were acquired on the Fortessa flow cytometer running FACS DIVA software. Flowjo software was used for analysis and NK cell absolute values and Ki67% positivity within NK cells were plotted using Prism.
In mouse, four different maturation states of NK cells are defined by CD27 and CD11b expression. Once NK marker (CD49b+), natural activating NK receptor (NKp46+) and IL-15/IL-2RB (CD122+) triple positive cells were identified, immature (CD11b−CD27−), early (CD11b−CD27+), high effector (CD11b+CD27+) and terminal effector (CD11b+CD27−) NK cells were quantified by flow cytometry.
NK cells in various maturation states were quantified in mice receiving a single dose, or after the third dose of a q7dx3 schedule, of Conjugate 1 at 0.01, 0.03, 0.1, 0.3, 1.0, and 1.5 mg/kg as described above. Using flow cytometry, the NK population of interest was identified by CD49b, NKp46 and CD122 positivity. CD11b and CD27 were then used to further differentiate the NK population in immature (CD11b-CD27−), early NK (CD11b−CD27+), high effector (CD11b+CD27+) and terminal effector (CD11b+CD27−) subpopulations. Peripheral blood was run on the Fortessa flow cytometer and absolute values for each population were determined using counting beads during sample acquisition using BD FACS DIVA software. Flow cytometric analysis was conducted using Flowjo software and data plotted in Prism.
The surface expression of NKG2D was conducted using flow cytometric analysis of anti-NKG2D signal, expressed as mean fluorescence intensity (MFI) in NK cells. Similarly, the level of intracellular granzyme B was conducted using flow cytometry-based detection of anti-Granzyme B signal, also expressed as MFI in NK cells. Following detection of NKG2D and granzyme B signal using the Fortessa flow cytometer and FACS Diva software, analysis was conducted using Flowjo software. MFI values were plotted using Prism. […] Dose-dependent increases in both NK activation markers was observed following a single dose of Conjugate 1.
In mouse, CD8 T cells were defined as CD45+CD3+CD4−CD8+. Blood and spleen from mice were subject to immunophenotyping using the Fortessa flow cytometer and with analysis using Flowjo software. Absolute CD8 cell counts were plotted in Prism as shown in FIG. 14 (blood) and FIG. 24 (spleen). FIG. 14 and FIG. 24 illustrate the ability of Conjugate 1 to induce proliferation and a sustained increase in numbers of CD8 T-cells following a single i.v. administration in mice at each of the dosage amounts described above. The impact is most notable for the medium (0.1mg/kg, 0.3 mg/kg) and high (1.0 mg/kg, 1.5 mg/kg) dosage amounts.
In mouse, CD8 effector memory (Tem) and CD8 central memory (TCM) T cells were identified as CD45+CD3+CD4−CD8+CD44+CD62− and CD45+CD3+CD4−CD8+CD44+CD62L+. Proliferation of these memory populations was conducted using Ki-67 positivity. Following a single dose of Conjugate 1 or IL-15, blood and spleen were subject to immunophenotyping using the Fortessa flow cytometer, DIVA acquisition software and Flowjo analysis software. Graphs were plotted in Prism. […] Both effector and central memory populations proliferate in response to administration of Conjugate 1, an exemplary long acting IL-15 agonist.
NK-cell Granzyme B expression as a function of time was measured following treatment with Conjugate 1 at doses of 0.01 mg/kg, 0.03 mg/kg, 0.1 mg/kg, 0.3 mg/kg, 1 mg/kg, and 1.5 mg/kg. Whole blood was collected from 24 to 240 hours post-dose for immunophenotyping. Once red blood cells were lysed, white blood cells were labeled with viability dye and markers specific for CD45, CD3 and CD49b to identify live NK cells. Cells were then simultaneously fixed and permeabilized for intracellular Granzyme B staining. Stained blood was run on a Fortessa flow cytometer, acquired by DIVA software and analyzed using Flowjo software. […]

The mark [3] stands for this setting: mice, blood, single dose 0.3 mg/kg.

As to “IL-15: recombinant human IL-15 from E. coli, SEQ ID NO: 1, non-glycosylated, 12.9 kDa; unconjugated comparator”, the “plasma levels following administration” value in data set [1] (single i.v. 50 μg/kg) is “rapidly cleared from the plasma”. In data set [2] (mice, single dose), the “Ki67 and Granzyme B in CD49b cells, spleen” value is reported as “does not”.

For mono-mPEG-SBA40K-IL-15 [Conjugate 1], the half-life result in data set [1] (single i.v. 100 μg/kg) was “approximately 30 hours”. The “Granzyme B percent positivity in blood NK cells” value in data set [2] (Balb/c mice, 0.03 and 0.3 mg/kg (Example 18)) is “induced significant increases in NK Granzyme B expression”. Also, in data set [2] (Balb/c mice, single i.v. 0.03 or 0.3 mg/kg, compared to CD8 and NK cells), the “CD4 T cell numbers and % Ki-67” value was “relatively small increase in numbers and % Ki-67 expression”. For the same substance, the “percent of NK cells positive for Granzyme B expression” value in data set [2] (mice, 0.01-1.5 mg/kg, 24 to 240 hours (Example 15)) is “increases NK-cell Granzyme B expression”. The “duration of increase in NK cell number” value in data set [2] (mice, all dose levels) is on record as “at least 96 hours”. Besides, the “duration of increase in % Ki67” value in data set [2] (mice, all dose levels, compared to vehicle) is reported as “at least 120 hours”. In data set [2] (setting [3]), the “increase in CD8 Tcm cell numbers” value worked out at 37.9 X, the “increase in CD8 Tem cell numbers” value turned out to be 14.5 X and the “increase in CD8 cell numbers” value worked out at 6.4 X. The “duration of increase of NK cells in all maturation sub-populations” value in data set [2] (mice, i.v., Example 11) was “at least 120 hours”. The “duration of increase in NK cell number” value in data set [2] (mice, medium and high dose levels) was “at least 144 hours”. The “duration of increase in % Ki67” value in data set [2] (mice, medium dose ranges (0.1 mg/kg and 0.3 mg/kg)) is “at least 144 hours”. In data set [2] (mice, repeated dosing Q7dx3), the “increase in CD8 Tcm cell numbers” value is listed as 183 X, the “increase in CD8 Tem cell numbers” value amounted to 73.8 X and the “increase in CD8 cell numbers” value is listed as 35.3 X. Further, in data set [2] (mice, single dose), the “Ki67 and Granzyme B in CD49b cells, spleen” value is “dose-dependent increase in both Ki67 and Granzyme B”; the “Ki-67 in effector and central memory CD8 T cells, blood” value was “dose-dependent increase in both effector and central memory CD8 T cells”; the “dose levels inducing a significant increase in total CD8 T cells in the blood” value is on record as at least 0.03 mg/kg. In data set [2] (mice, single dose 0.01 to 1.5 mg/kg), the NK cell numbers entry is listed as “increase significantly above vehicle control at all dose levels”. The “CD8 and CD8 memory T cell numbers at end of time course” value in data set [2] (mice, single dose 0.3-1.5 mg/kg) was “did not return to baseline at 240 hours post injection”. The “NKG2D and Granzyme B expression (MFI) by NK cells” value in data set [2] (mice, single i.v. 0.03, 0.3, 1 mg/kg vs vehicle) is “sustained increase in both NKG2D and Granzyme B”. Moreover, in data set [2] (mice, single iv injection), the “time increased CD8 cell numbers were maintained compared to vehicle” value was “at least 240 hours”.
